Reference: patent US11008332B2, “Pharmaceutical composition for preventing or treating aging-related diseases containing decursin derivative as active ingredient” (PRG S&TECH INC., priority 2017, dated 2021)

Assays:
Plasma protein = Plasma protein binding, human; type: in vitro ADME
Protocol: (§1) In vitro ADME studies (plasma protein binding, CYP inhibition, microsomal stability, plasma stability and hERG inhibition) were performed by New drug development center though standard protocols.

Plasma stability, rat = type: in vitro ADME
[1] = Liver microsomal stability, mouse; type: in vitro ADME
CYP2C19 = CYP2C19 (Homo sapiens, UniProt P33261); test: CYP inhibition CYP2C19; type: in vitro ADME
Protocol: as §1

CYP2D6 = CYP2D6 (Homo sapiens, UniProt P10635); test: CYP inhibition CYP2D6; type: in vitro ADME
Chain of CYP2D6 (P10635 whole entry): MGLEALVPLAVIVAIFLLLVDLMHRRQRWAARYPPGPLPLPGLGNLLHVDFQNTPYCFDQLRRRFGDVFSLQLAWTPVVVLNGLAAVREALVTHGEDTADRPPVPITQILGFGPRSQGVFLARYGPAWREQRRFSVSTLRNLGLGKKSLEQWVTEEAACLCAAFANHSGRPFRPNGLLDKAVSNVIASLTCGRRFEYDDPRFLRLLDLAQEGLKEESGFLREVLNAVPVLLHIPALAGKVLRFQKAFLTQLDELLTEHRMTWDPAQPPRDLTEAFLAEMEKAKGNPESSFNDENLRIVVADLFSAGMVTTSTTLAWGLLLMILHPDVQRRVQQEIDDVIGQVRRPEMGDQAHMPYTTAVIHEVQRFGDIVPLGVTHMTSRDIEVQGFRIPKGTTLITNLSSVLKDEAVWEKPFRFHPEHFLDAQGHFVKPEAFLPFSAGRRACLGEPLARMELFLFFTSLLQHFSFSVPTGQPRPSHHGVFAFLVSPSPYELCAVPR
Protocol: as §1

Lmna^wt/G609G mice = test: Life span and morphology of Lmna^wt/G609G mice; type: in vivo, mouse
[2] = test system: collagen 1A expression in HaCaT cells; test: Collagen 1A expression in HaCaT cells (Western blot); type: cell-based, human; details: 2 or 5 μM, 24 hours, FIG. 5A
Protocol: Human keratinocyte HaCaT cells and normal fibroblast 9N (GM 00038, person) and N46 (AG13299, person) were treated with 2 or 5 μM SLC-D011 and incubated for 24 hours and then the amount of collagen 1A expression was confirmed in HaCaT cells and fibroblasts was confirmed.

Water solubility = type: physicochemical
[3] = Lmna^wt/G609G mice, injection started from 43 weeks old, FIG. 2E

Chain of CYP2C19 (P33261 whole entry): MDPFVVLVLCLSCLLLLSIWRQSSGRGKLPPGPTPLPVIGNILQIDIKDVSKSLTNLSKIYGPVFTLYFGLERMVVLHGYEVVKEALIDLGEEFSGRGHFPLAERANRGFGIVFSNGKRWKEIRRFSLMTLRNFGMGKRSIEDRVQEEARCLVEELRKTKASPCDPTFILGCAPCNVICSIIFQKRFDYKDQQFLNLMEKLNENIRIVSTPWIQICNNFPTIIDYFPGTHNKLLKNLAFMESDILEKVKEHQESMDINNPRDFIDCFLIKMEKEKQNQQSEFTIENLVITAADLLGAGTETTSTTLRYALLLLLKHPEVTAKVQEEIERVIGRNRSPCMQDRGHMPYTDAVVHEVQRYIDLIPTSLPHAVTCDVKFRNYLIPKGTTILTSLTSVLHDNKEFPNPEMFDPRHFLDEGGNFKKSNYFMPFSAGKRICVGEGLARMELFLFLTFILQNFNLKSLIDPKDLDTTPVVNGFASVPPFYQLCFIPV

**Q.** With `CC1(C)Oc2cc3oc(=O)ccc3cc2C[C@@H]1OC/C=C/c1ccccc1` [SLC-D011, (7S)-(+)-8,8-dimethyl-7-(3-phenyl-allyloxy)-7,8-dihydro-6H-pyrano[3,2-g]chromen-2-one] as the compound, how does the “Plasma protein binding Human (% Bound)” value (Plasma protein) read?
**A.** The value was 99.9 % Bound.

**Q.** And the “Plasma stability (% remaining) Rat 30 min” value (Plasma stability, rat; 30 min)?
**A.** The value was 83.6 % remaining.

**Q.** And the “Plasma stability (% remaining) Rat 120 min” value (Plasma stability, rat; 120 min)?
**A.** Its value is 75.1 % remaining.

**Q.** What about the “Liver microsomal stability (% remaining during 30 min) Mouse (%)” value [1] of the same compound?
**A.** Its value is 59.7%.

**Q.** What about the “CYP inhibition CYP2C19” value (CYP2C19) of the same compound?
**A.** The value was 28.8.

**Q.** What about the “CYP inhibition CYP2D6” value (CYP2D6) of the same compound?
**A.** Its value is 91.7.

**Q.** And the “lifespan extended from 45 to” value (Lmna^wt/G609G mice; Lamn^wt/G609G model)?
**A.** The value was 64 weeks.

**Q.** And the average life span (Lmna^wt/G609G mice; [3])?
**A.** The average life span was 65 weeks.

**Q.** And the “maximum (max) life span” value (Lmna^wt/G609G mice; [3])?
**A.** Its value is 66 weeks.

**Q.** And the “morphology such as hair condition and body size” value (Lmna^wt/G609G mice; Lmna^wt/G609G mouse, FIG. 2F)?
**A.** Its value is “greatly improved”.

**Q.** What about the “collagen expression in keratinocytes” value [2] of the same compound?
**A.** Its value is “increasing collagen expression”.

**Q.** What about the water solubility (Water solubility) of the same compound?
**A.** Its water solubility is “very low water solubility”.
